Data published in patent publication US20220213049A1, “S[…]-4-ONE FOR THE TREATMENT AND PROPHYLAXIS OF HEPATITIS B VIRUS INFECTION” (priority 2019, published 2022).

What was measured:
[1] = tested on: HBeAg (surrogate marker for cccDNA) in HepDES19 cells; assay: Engineered HepDES19 primary screen assay (HBeAg ELISA); format: cell-based, HBV; conditions: Hepatitis B virus, HepDES19, 120 h, read-out: IC50 (HBeAg level, HepDES19 primary screen assay)
From the text: The assay was employed to screen for novel cccDNA inhibitors. HepDES19 is a cccDNA-producing cell line. In this cell line, HBeAg in the cell culture supernatant as surrogate marker, as HBeAg production depends on cccDNA level and activity. HepDES19 is an engineered cell line which contains a 1.1 unit length HBV genome, and pgRNA transcription from the transgene is controlled by Tetracycline (Tet). In the absence of Tet, pgRNA transcription will be induced, but HBV e antigen (HBeAg) could not be produced from this pgRNA due to very short leader sequence before the HBeAg start codon and the start codon is disrupted. Only after cccDNA is formed, the missing leader sequence and start codon mutation would be restored from the 3′-terminal redundancy of pgRNA, and then HBeAg could be synthesized. Therefore, HBeAg could be used as a surrogate marker for cccDNA (Zhou, T. et al., Antiviral Res. (2006), 72(2), 116-124; Guo, H. et al., J. Virol. (2007), 81(22), 12472-12484).
HepDES19 cells were seeded at 2×10^6 cells per T150 flask and cultured with the culture medium (Dulbecco's Modified Eagle Medium: Nutrient Mixture F-12 [DMEM-F12, Gibco Cat. 11320-82], 10% Fetal Bovine Serum [FBS, Clontech Cat. 631101], 0.1 mM Non-Essential Amino Acids Solution [NEAA, Gibco Cat. 11140-050], 50 μg/mL Penicillin-Streptomycin [PS, Invitrogen Cat. 15140-163], 500 μg/mL Geneticin [G418, Invitrogen Cat. 10131-027]) containing 3 μg/mL Tet (Sigma, Cat. 87128) for 5 days. Cells were then seeded at 4×10^6 cells per T150 in the same culture medium as described above in the absence of Tet for 8 days. Cells were then harvested and frozen at density of 2×10^6 cells per ML. For compound testing, the frozen cells were thawed and seeded into 96-well plates at a density of 6×10^4 cells per well. At 24 hours after seeding, half log serial dilutions of compounds made with Dimethyl sulfoxide (DMSO, Sigma, Cat. D2650) were further diluted with the same culture medium as described above before they were added to the cells to reach desired final compound concentrations and 1% DMSO concentration. Plates were then incubated at 37° C. for another 5 days before measurement of HBeAg level and cell viability. Intracellular HBeAg level were measured with enzyme-linked immunosorbent assay (ELISA) kit (Shanghai Kehua Diagnostic Medical Products Co., Ltd). Cell viability was assessed using Cell Counting Kit-8 (DonJindo, Cat. CK04-20). IC50 values were derived from the dose-response curve using 4 parameter logistic curve fit method.
The compounds of the present invention were tested for their capacity to inhibit extracellular HBeAg level as described herein.

[2] = tested on: HBV (extracellular HBsAg) in PHH; assay: Cryopreserved primary human hepatocytes (PHH) HBV infection assay, HBsAg CLIA; format: cell-based; conditions: Hepatitis B virus, Hepatocyte, 216 h, read-out: HBsAg IC50
Protocol: This assay is used to confirm the anti-HBV effect of the compounds in HBV PHH infection assay. Cryopreserved PHH (BioreclamationIVT, Lot YJM) was thawed at 37° C. and gently transferred into pre-warmed InVitroGRO HT medium (BioreclamationIVT, Cat. S03317). The mixture was centrifuged at 70 relative centrifugal force (RCF) for 3 minutes at RT, and the supernatant was discarded. Pre-warmed InVitroGRO CP medium (BioreclamationIVT, Cat #S03316) was added to the cell pellet to gently re-suspend cells. The cells were seeded at the density of 5.8×10^4 cells per well to collagen I coated 96-well plate (Gibco, Cat. A1142803) with the InVitroGRO CP medium. All plates were incubated at 37° C. with 5% CO2 and 85% humidity.
At 20 hours after plating, the medium was changed to PHH culture medium (Dulbecco's Modified Eagle Medium (DMEM)/F12 (1:1) (Gibco, Cat. 11320-033), 10% fetal bovine serum (Gibco Cat. 10099141), 100 U/mL penicillin, 100 μg/mL streptomycin (Gibco, Cat. 151401-122), […] (Invitrogen Cat. PHG0311L), 20 ng/mL dexamethasone (Sigma, Cat. D4902) and 250 ng/mL human recombinant insulin (Gibco, Cat. 12585-014)). And the cells were incubated at 37° C. with 5% CO2 and 85% humidity for 4 hours. The medium was then changed to pre-warmed PHH culture medium containing 4% polyethylene glycol (PEG) MW8000 (Sigma, Cat. P1458-50ML) and 1% DMSO (Sigma, Cat. D2650). 5.8×10^6 genomic equivalents of HBV were added into the medium.
At 24 hours post-infection, the cells were gently washed with PBS and refreshed with PHH culture medium supplemented with 1% DMSO, and 0.25 mg/mL Matrix gel (Corning, Cat. 356237) at 200 μL per well. All plates were immediately placed in at 37° C. CO2 incubator.
24 hours later, serial dilutions of compounds made with DMSO were further diluted with the same culture medium (PHH culture medium supplemented with 1% DMSO and 0.25 mg/mL Matrix gel as described above) before they were added to the cells to reach desired final compound concentrations and 1% DMSO concentration. The medium containing the compounds were refreshed every three days.
At 9 days post-compound treatment, extracellular HBsAg level were measured with Chemiluminescence Immuno Assay (CLIA) kit (Autobio, HBsAg Quantitative CLIA). Extracellular HBV DNA was extracted by MagNA Pure 96 system (Roche) and then determined by quantitative PCR with the following primers and probe: […]
HBsAg IC50 and HBV DNA IC50 values were derived from the dose-response curve using 4 parameter logistic curve fit method. The compounds of formula (I) have HBsAg IC50<20 μM, particularly <1 μM; and HBV DNA IC50<50 μM.

| Structure (SMILES) | IC50 [1] | IC50 [2] |
| --- | --- | --- |
| COc1cc(Br)c(OCCO[C@H]2C[C@@H](C(=O)O)C2)cc1-c1cc(=O)c2cccc(Cl)c2o1 [Example 1, Cis-3-[2-[2-bromo-5-(8-chloro-4-oxo-chromen-2-yl)-4-methoxy-phenoxy]ethoxy]cyclobutanecarboxylic acid] | 3.18 µM | 8.02 µM |
| COc1cc(Br)c(OCCC(=O)O)cc1-c1cc(=O)c2cccc(Cl)c2o1 [Example 2, 3-[2-Bromo-5-(8-chloro-4-oxo-chromen-2-yl)-4-methoxy-phenoxy]propanoic acid] | 1.19 µM | 3.85 µM |
| COc1cc(Br)c(OC2CC(C(=O)O)C2)cc1-c1cc(=O)c2cccc(Cl)c2o1 (centres unmarked) [Example 5, 3-[2-Bromo-5-(8-chloro-4-oxo-chromen-2-yl)-4-methoxy-phenoxy]cyclobutanecarboxylic acid] | 6.08 µM | 4.09 µM |
| COc1cc(Cl)c(OCCO[C@H]2C[C@@H](C(=O)O)C2)cc1-c1cc(=O)c2cccc(Cl)c2o1 [Example 8, Cis-3-[2-[2-chloro-5-(8-chloro-4-oxo-chromen-2-yl)-4-methoxy-phenoxy]ethoxy]cyclobutanecarboxylic acid] | 1.5 µM | 5.13 µM |
| COc1cc(C)c(OCCCOCC(=O)O)cc1-c1cc(=O)c2cccc(Cl)c2o1 [Example 11, 2-[3-[5-(8-Chloro-4-oxo-chromen-2-yl)-4-methoxy-2-methyl-phenoxy]propoxy]acetic acid] | 2.43 µM | 7.4 µM |
| Cc1ccc(-c2cc(=O)c3cccc(Cl)c3o2)cc1O[C@H]1C[C@@H](C(=O)O)C1 [Example 15, Cis-3-[5-(8-chloro-4-oxo-chromen-2-yl)-2-methyl-phenoxy]cyclobutanecarboxylic acid] | 0.49 µM | 1.96 µM |
| O=C(O)COc1cc(-c2cc(=O)c3cccc(Cl)c3o2)ccc1C(F)(F)F [Example 22, 2-[5-(8-Chloro-4-oxo-chromen-2-yl)-2-(trifluoromethyl)phenoxy]acetic acid] | 0.32 µM | 6.59 µM |
| COc1ccc(OCCO[C@H]2C[C@@H](C(=O)O)C2)cc1-c1cc(=O)c2cccc(Cl)c2o1 [Example 31, Cis-3-[2-[3-(8-Chloro-4-oxo-chromen-2-yl)-4-methoxy-phenoxy]ethoxy]cyclobutanecarboxylic acid] | 4.66 µM | 10.2 µM |
| COc1c(-c2cc(=O)c3cccc(Cl)c3o2)ccc(Br)c1OC1CC(C(=O)O)C1 (centres unmarked) [Example 35, 3-[6-Bromo-3-(8-chloro-4-oxo-chromen-2-yl)-2-methoxy-phenoxy]cyclobutanecarboxylic acid] | 0.19 µM | 3.91 µM |
| COc1c(-c2cc(=O)c3cccc(Cl)c3o2)ccc(C)c1OC1CC(C(=O)O)C1 (centres unmarked) [Example 36, 3-[3-(8-Chloro-4-oxo-chromen-2-yl)-2-methoxy-6-methyl-phenoxy]cyclobutanecarboxylic acid] | 3.13 µM | 9.26 µM |
| COc1c(-c2cc(=O)c3cccc(Cl)c3o2)ccc(Br)c1OCCCNC(=O)C(=O)O [Example 44, 2-[3-[6-Bromo-3-(8-chloro-4-oxo-chromen-2-yl)-2-methoxy-phenoxy]propylamino]-2-oxo-acetic acid] | 1.44 µM | – |
| COc1cc(Br)c(OCCNC(=O)C(=O)O)cc1-c1cc(=O)c2cccc(Cl)c2o1 [Example 45, 2-[2-[2-Bromo-5-(8-chloro-4-oxo-chromen-2-yl)-4-methoxy-phenoxy]ethylamino]-2-oxo-acetic acid] | 1.4 µM | – |
| COc1cc(Br)c(OCCCNC(=O)C(=O)O)cc1-c1cc(=O)c2cccc(Cl)c2o1 [Example 46, 2-[3-[2-Bromo-5-(8-chloro-4-oxo-chromen-2-yl)-4-methoxy-phenoxy]propylamino]-2-oxo-acetic acid] | 0.61 µM | – |
